One compound from PMC8521015, “Salicylic Acid, a Plant Hormone, Suppresses Phytophagous Insect Immune Response by Interrupting HMG-Like DSP1” (Frontiers in Physiology, 2021) can be followed below.

In the test the target is T1, Se-DSP1 (Spodoptera exigua, UniProt A0A5P9L9K9).
T1 construct: full-length ORF, 505 residues; pET vector, bacterial expression, 6xHis and V5 tags, Ni-NTA then Sephadex G-100
T1 sequence (A0A5P9L9K9 1-505): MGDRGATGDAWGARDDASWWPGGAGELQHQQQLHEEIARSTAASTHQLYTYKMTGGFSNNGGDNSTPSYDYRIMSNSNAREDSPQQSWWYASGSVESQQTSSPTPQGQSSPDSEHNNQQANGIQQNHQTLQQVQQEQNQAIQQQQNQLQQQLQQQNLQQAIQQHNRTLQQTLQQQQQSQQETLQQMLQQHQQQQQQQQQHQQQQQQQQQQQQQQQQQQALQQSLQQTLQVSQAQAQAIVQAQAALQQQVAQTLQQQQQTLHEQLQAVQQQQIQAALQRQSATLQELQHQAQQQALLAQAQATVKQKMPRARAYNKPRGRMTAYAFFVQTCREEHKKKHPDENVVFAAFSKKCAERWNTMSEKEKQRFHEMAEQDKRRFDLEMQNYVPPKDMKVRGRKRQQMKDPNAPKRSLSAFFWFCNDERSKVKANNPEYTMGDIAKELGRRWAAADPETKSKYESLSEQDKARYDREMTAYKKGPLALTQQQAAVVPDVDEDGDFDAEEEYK
The test is described as follows: thermal shift assay (Protein Thermal Shift dye, StepOne real-time PCR). The settings on record: 0-20 μM SA; 500 ng protein; 25-99 °C at 2.96 °C/min; ligand binding equation fit of melting temperatures. (Real-time PCR tracks product formation cycle by cycle.)

Regarding `O=C(O)c1ccccc1O` [SA, 2-hydroxybenzoic acid], the Kd (as a rule, a measure of binding affinity in units of concentration) turned out to be 1280 ± 50 nM.
